Data: US20220403048A1, “BINDING MOLECULES TO ARGINASE II [ARG2]” (Cancer Research Technology Limited, priority 2019, published 2022)
Where a chain is given by its changes, count along the chain named. Like-named read-outs stand apart in the source and are kept apart here. Marks after values point to notes of the source that are not given here.

What was measured:
both ARG isoforms = conditions: cited from earlier work; for Kd: both ARG isoforms at physiologic pH, read-out: binding constant (KD)
trimeric human ARG2 = molecular target: T1, trimeric human ARG2 (Homo sapiens, UniProt P78540); test: Human trimeric ARG2 enzyme inhibition assay (urea production); assay type: biochemical
T1 construct: human ARG2 (aa23-354); His10 (C); made in house; host or cells: E. coli BL21 (DE3)
T1 sequence (P78540 23-354): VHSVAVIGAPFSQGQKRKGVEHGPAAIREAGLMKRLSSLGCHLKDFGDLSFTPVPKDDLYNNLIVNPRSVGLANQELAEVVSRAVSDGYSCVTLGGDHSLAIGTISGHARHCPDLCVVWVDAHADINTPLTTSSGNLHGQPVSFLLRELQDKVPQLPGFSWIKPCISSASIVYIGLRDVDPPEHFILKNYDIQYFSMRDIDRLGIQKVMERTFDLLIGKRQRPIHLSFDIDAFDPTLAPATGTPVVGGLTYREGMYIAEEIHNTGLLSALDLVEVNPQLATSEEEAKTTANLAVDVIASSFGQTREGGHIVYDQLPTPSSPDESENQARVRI
Protocol: Unpurified anti-ARG2 scFv fragments from periplasmic preparations were screened in an ARG2 enzyme inhibition assay using a Pherastar plate reader (BMG Labtech, Germany). In this assay, the ability of unpurified scFv to inhibit the enzymatic activity of trimeric ARG2 was determined by measuring the production of urea, the product of L-arginine turnover by ARG2.
Selection outputs were screened as unpurified bacterial periplasmic extracts containing scFv, prepared in 200 mM TES buffer pH 7.4, 0.5 mM EDTA and 0.5 M sucrose. 10 μl of unpurified scFv were added to a Greiner Bio-One® 384 well assay plate (Greiner Bio-one, UK; cat: 781901). […]
Urea was detected by the simultaneous addition of equal volumes of O-Phthaldialdehyde (1.5 mM O-Phthaldialdehyde, 7% H2SO4, 0.03% Brij L23) and N-(1-Napthyl)ethylenediamine (1.66 mM N-(1-Napthyl)ethylenediamine, 81 mM Boric acid, 21% H2SO4, 0.03% Brij L23) followed by an 18 minute incubation at room temperature before the colorimetric product was quantified on the Pherastar by measuring absorbance at 505 nm. […]
Data were analysed by calculating % maximum (max) control for each sample using the 505 nm absorbance data. % max control was determined according to equation 2. […]
Data were again analysed by calculating % Max control values for each sample. […]

ARG2 [1] = molecular target: T2, ARG2 (Homo sapiens, UniProt P78540); test: T cell proliferation assay (BrdU, 72 hours) with exogenous ARG2; assay type: cell-based; conditions: In Absence of rhARG2
T2 sequence (P78540 23-354): T1 sequence (P78540 23-354)
Protocol: (§1) This assay served to provide in vitro evidence of functional efficacy for each antibody.
(§2) Briefly, Leukocyte cones (NHS Blood and Transplant, Watford, UK) underwent Ficoll Plaque (GE, Sweden; Cat: 17-1440-02) gradient separation, PBMC's were extracted and pan T cell population isolated by negative selection using the Human T Cell Enrichment Kit (Stemcell Technologies, France; Cat: 19051) according to the manufacturer's instructions.
(§3) 40000 cells/well were seeded in complete growth media (RMPI 1640, 5% Human Serum Albumin) into a 96 well clear TC treated microplate (Greiner-Bio One, Germany; Cat: 655180). T Cells were activated by the addition of ImmunoCult CD3/CD28 (Stemcell Technologies, France; Cat: 10971) at a dilution of 1:40 directly into wells and the plate incubated 37° C., 5% CO2 for 45 minutes.
(§4) To determine EC50's of test antibodies, a dilution series was created in sterile TBS at 8× the final assay concentration was added to the assay plate containing cells. Plate was incubated for 30 minutes at 37° C., 5% CO2.
(§5) ARG2 was added to relevant wells of the plate at a final concentration of 15 μg/ml. The equivalent volume of ARG2 vehicle and test antibody vehicle was added to relevant control wells. […]
(§6) Calculated data was expressed as % of control (Equation 3) and graphical plots were constructed using a four parameter fit and EC50's determined using model 205 in XLFit (IDBS, UK). […]

monomeric ARG2 = molecular target: T3, monomeric ARG2 (Homo sapiens, UniProt P78540, E275Q); test: Human monomeric ARG2 enzyme inhibition assay; assay type: biochemical; conditions: purified recombinant human IgG1, FIG. 5
T3 construct: human ARG2 (aa23-354); His10 (C); made in house; host or cells: E. coli
T3 sequence (P78540 23-354 E275Q): T1 sequence (P78540 23-354) with E253Q
Protocol: ARG2 specific recombinant IgG1 were screened for their ability to inhibit enzymatic activity of monomeric ARG2. In this assay, the ability of ARG2 specific recombinant IgG1 to inhibit the enzymatic activity of monomeric ARG2 was determined by measuring the production of urea, the product of L-arginine turnover by monomeric ARG2.
IC50 values were determined by testing a dilution series of the ARG2 specific recombinant IgG1, prepared in TBS.
10 μl of ARG2 specific recombinant IgG1 (dilution series) were added to a Greiner Bio-One® 384 well assay plate (Greiner Bio-one, UK; cat: 781901). […]
Urea was detected by the simultaneous addition of equal volumes of O-Phthaldialdehyde (1.5 mM O-Phthaldialdehyde, 7% H2SO4, 0.03% Brij L23) and N-(1-Napthyl)ethylenediamine (1.66 mM N-(1-Napthyl)ethylenediamine, 81 mM Boric acid, 21% H2SO4, 0.03% Brij L23) followed by an 18 minute incubation at room temperature before the colorimetric product was quantified on the Pherastar by measuring absorbance at 505 nm.
ARG2 specific recombinant IgG1 were tested alongside N-Hydroxyl-L-Arginine (a small molecule competitive inhibitor of ARG2) as a positive control and NIP228 (irrelevant isotype control antibody) as a negative control. Data points were plotted and IC50 values determined using a four parameter fit in GraphPad Prism (FIG. 5).

[2] = molecular target: T4, THP-1 lysate derived human trimeric ARG2 (Homo sapiens, UniProt P78540); test: THP-1 lysate derived human ARG2 enzyme inhibition assay; assay type: biochemical
T4 construct: expressed in transfected cells; host or cells: THP-1 cells overexpressing human ARG2 (cell lysate)
T4 sequence (P78540 23-354): T1 sequence (P78540 23-354)
Protocol: Anti-ARG2 IgGs were tested for their ability to inhibit mammalian expressed human ARG2 produced in transfected THP-1 cells. To do this cell lysates were prepared from THP-1 cells overexpressing human ARG2 and from wild type THP-1 cells. 350 million cells were suspended in 3 ml tris buffered saline (25 mM Tris+150 mM sodium chloride in dH2O, pH 7.4) and cell lysates prepared by passing through a 26G needle 20 times. A BCA assay was used to measure the protein concentration in the lysate. […] Antibodies were tested alongside N-Hydroxyl-L-Arginine (a small molecule competitive inhibitor of ARG2) as a positive control and CEA6 (irrelevant isotype control antibody) as a negative control. Data points were plotted and IC50 values determined using a four parameter fit in GraphPad Prism (FIG. 11, Table 13).
Anti-ARG2 IgGs were tested for their ability to inhibit to mammalian expressed human ARG2 produced in transfected THP-1 cells. […] Urea detection reagents, O-Phthaldialdehyde (1.5 mM O-Phthaldialdehyde, 7% H2SO4, 0.03% Brij L23) and N-(1-Napthyl)ethylenediamine (1.66 mM N-(1-Napthyl)ethylenediamine, 81 mM Boric acid, 21% H2SO4, 0.03% Brij L23) were mixed 1:1 just prior to use and 80 μl/well were added, incubated for 1 hour at room temperature and absorbance at 505 nm was read on a Pherastar plate reader. […]

ARG2 [3] = molecular target: T2, ARG2; test: T cell proliferation assay (BrdU, 72 hours) with exogenous ARG2; assay type: cell-based; parameters: human ARG2 (aa23-354); His10 (C); made in house; host or cells: E. coli BL21 (DE3); conditions: In Presence of rhARG2, NHLA value at 0.444 mM
Protocol: as §1, §2, §3, §4, §5, §6

## N[C@@H](CCCCB(O)O)C(=O)O [ABH, 2(S)-amino-6-boronohexanoic acid]
Both ARG isoforms
  Kd: ~300 nM

## N[C@@H](CSCCB(O)O)C(=O)O [BEC, S-(2-boronoethyl)-L-cysteine]
Both ARG isoforms
  Kd: ~300 nM

## N=C(N)NCCC[C@H](N)C(=O)O [L-arginine]
Both ARG isoforms; natural substrate of arginase
  Km: 5 mM

## NC(=NO)NCCC[C@H](N)C(=O)O [NHLA, NG-Hydroxy-L-arginine, reference compound]
Trimeric human ARG2; purified recombinant human IgG1, FIG. 3
  inhibition of the activity of human trimeric ARG2: able to inhibit
Trimeric human ARG2; purified scFv, FIG. 2
  inhibition of the activity of human trimeric ARG2: able to inhibit
ARG2 [1]
  EC50: < 1800 nM
  Maximum % Proliferation: 80%
Monomeric ARG2
  inhibition of the activity of human monomeric ARG2: able to inhibit
[2]; methods of section 2.8, FIG. 16, read-out: THP-1 ARG2 EIA IC50
  IC50: 12900 nM
[2]; recombinant human IgG1, lysate without plasma (section 3.3), FIG. 13, read-out: THP-1 lysate ARG2 EIA IC50
  IC50: 4750 nM
ARG2 [3]
  Maximum % Proliferation: 49* %
